From patent US5866562A, “Ring-bridged bis-quinolines” (Bayer Aktiengesellschaft, priority 1996, dated 1999)

Experiments:
[1] = target: apamine binding sites in bovine cerebral membranes (apamine-sensitive potassium channels); test: Binding of ^125 I-apamine to bovine cerebral membranes; conditions: ^125 I-apamine 30 pM; calf hippocampus membranes; pH 7.4; 60 min on ice
Description: 1) Binding of ^125 I-apamine to bovine cerebral membranes
Calfbrains were obtained from the local abattoir. The hippocampus was prepared on ice and a membrane suspension was made up by homogenization twice in buffer (100 mM Tris-HCl, KCl 5 mM, pH 7.4) and centrifugation at 43,000×g. In a total volume of 500 μl, the incubation mixture contained 200 μg of membrane protein, 30 pM ^125 I-apamine and test substances in the concentration range 1×10^-9 to 1×10^-4 M. The non-specific binding of ^125 I-apamine was determined in the presence of 1×10^-7 M unlabelled apamine.
After preincubation for 30 min at room temperature (test substances and membrane homogenate), the samples were placed on ice for 10 min before the radioligand was added. The main incubation time was 60 min on ice. When the reaction time had elapsed, an excess of ice-cooled incubation buffer was added to each sample and the mixture was filtered with suction through cellulose acetate/nitrate membrane filters. The amount of bound ^125 I-apamine was measured with a gamma counter.

[2] = system: apamine-sensitive rubidium efflux in PC12 cells (potassium channels); test: Non-radioactive Rb+ efflux assay for the identification of potassium channel modulators; assay type: cell-based; conditions: Rattus norvegicus, PC-12, 10 min, at a test concentration of 10 μM, 50 mM KCl depolarization
Description: 2) Non-radioactive Rb^+ efflux assay for the identification of potassium channel modulators
The potassium in PC12 cells is exchanged with rubidium, which is not present in the cells. This exchange is performed by incubating the cells over a period of 4 h in a physiological buffer containing 5.4 mM RbCl without KCl. This rubidium subsequently serves as a tracer for potassium.
The cells laden with Rb^+ in this way are washed three times and then stimulated by depolarization with 50 mM KCl to open potassium channels (10 min), causing Rb^+ to flow out of the cells into the supernatant according to the concentration gradient.
The rubidium contents in the cell supernatant and in the residual cells after they have been lysed with 1% Triton X-100 are then determined by means of atomic absorption spectroscopy. The relative proportion of rubidium in the cell supernatant (=Rb^+ efflux) is used as a measure of the potassium channel activity.
The effect of substances on the channel activity is measured by co-incubating the test substance over the ten-minute stimulation period and determining its effect on the Rb^+ efflux in the manner described above.

Compound	Ki [1] [nM]	inhibition at 10 µM [2] [%]
Cc1cc(N2CCCN(c3cc(C)nc4c(C)cccc34)CC2)c2cccc(C)c2n1 [Example 12]	35	73
c1ccc2c(N3CCCN(c4ccnc5ccccc45)CC3)ccnc2c1 [Example 1]	780	
Cc1cc(N2CCCN(c3cc(C)nc4cccc(O)c34)CC2)c2c(O)cccc2n1 [Example 7]		58
